# Laboratory results from US20240174662A1, “SMALL MOLECULE INHIBITORS OF SALT INDUCIBLE KINASES” (Janssen Biotech, Inc., priority 2021, published 2024).
# Molecular target: SIK2 (Homo sapiens (Human), UniProt Q9H0K1)
# Test: SIK2 Enzymatic Assay Version 2 (High ATP)
# Type: biochemical
# Settings: 3 mM ATP and 200 μM HDAC5tide final, ADP-Glo Max luminescence
# Summary of the method: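 Luminescent ADP-Glo Max read-out: depletion reagent 2 h, then detection reagent 1 h. Before the reaction, compounds were incubated 30 min with enzyme added at 6 nM (twice final concentration), with all steps at room temperature.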
# Sequence of SIK2 (Q9H0K1 whole entry, species assumed): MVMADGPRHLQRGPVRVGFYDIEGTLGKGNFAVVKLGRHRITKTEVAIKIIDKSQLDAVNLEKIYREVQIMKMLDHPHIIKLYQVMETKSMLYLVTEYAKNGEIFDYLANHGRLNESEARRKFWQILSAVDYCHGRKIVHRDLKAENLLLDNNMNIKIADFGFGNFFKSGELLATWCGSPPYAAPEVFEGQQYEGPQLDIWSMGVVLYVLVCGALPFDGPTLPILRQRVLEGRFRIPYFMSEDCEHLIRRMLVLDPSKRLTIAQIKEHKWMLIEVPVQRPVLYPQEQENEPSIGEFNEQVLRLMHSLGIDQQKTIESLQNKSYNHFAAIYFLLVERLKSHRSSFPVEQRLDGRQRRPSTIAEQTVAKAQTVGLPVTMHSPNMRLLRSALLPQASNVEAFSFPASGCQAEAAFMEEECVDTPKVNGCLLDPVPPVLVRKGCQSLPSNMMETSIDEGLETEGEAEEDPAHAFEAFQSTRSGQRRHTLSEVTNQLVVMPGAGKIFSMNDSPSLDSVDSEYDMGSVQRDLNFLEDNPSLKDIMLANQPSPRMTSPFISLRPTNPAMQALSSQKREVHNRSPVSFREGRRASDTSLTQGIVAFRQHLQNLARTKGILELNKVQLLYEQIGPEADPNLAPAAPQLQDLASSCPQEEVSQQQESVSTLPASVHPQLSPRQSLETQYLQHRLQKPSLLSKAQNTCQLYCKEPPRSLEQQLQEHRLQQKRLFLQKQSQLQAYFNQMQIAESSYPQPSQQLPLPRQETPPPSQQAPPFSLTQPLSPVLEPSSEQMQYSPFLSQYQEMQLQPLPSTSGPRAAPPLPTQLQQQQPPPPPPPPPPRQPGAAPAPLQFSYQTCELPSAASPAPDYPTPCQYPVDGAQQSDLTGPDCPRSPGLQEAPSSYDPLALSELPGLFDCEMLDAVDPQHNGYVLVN
row,Compound,IC50 [nM]
1,"Cn1ncc(OC[C@H]2CCN2CCF)c1-c1ccn2nc(NC(=O)C3CC3)cc2c1 [Example 241, N-[5-[4-[[(2R)-1-(2-fluoroethyl)azetidin-2-yl]methoxy]-2-methyl-pyrazol-3-yl]pyrazolo[1,5-a]pyridin-2-yl]cyclopropanecarboxamide]",3.5
2,"CC(C)CN1CC[C@@H]1COc1cnn(C)c1-c1ccn2nc(NC(=O)C3CC3)cc2c1 [Example 244, N-[5-[4-[[(2R)-1-isobutylazetidin-2-yl]methoxy]-2-methyl-pyrazol-3-yl]pyrazolo[1,5-a]pyridin-2-yl]cyclopropanecarboxamide]",6.3
3,"CCCN1CC[C@@H]1COc1cnn(C)c1-c1ccn2nc(NC(=O)C3CC3)cc2c1 [Example 246, N-[5-[2-methyl-4-[[(2R)-1-propylazetidin-2-yl]methoxy]pyrazol-3-yl]pyrazolo[1,5-a]pyridin-2-yl]cyclopropanecarboxamide]",1.6
4,"Cn1ncc(OC[C@H]2CCN2CC2CC2)c1-c1ccn2nc(NC(=O)C3CC3)cc2c1 [Example 247, N-[5-[4-[[(2R)-1-(cyclopropylmethyl)azetidin-2-yl]methoxy]-2-methyl-pyrazol-3-yl]pyrazolo[1,5-a]pyridin-2-yl]cyclopropanecarboxamide]",2.7
5,"[2H]C([2H])([2H])N1CCC[C@@H]1COc1cnn(C)c1-c1ccn2nc(NC(=O)C3CC3)cc2c1 [Example 249, N-[5-[2-methyl-4-[[(2R)-1-(trideuteriomethyl)pyrrolidin-2-yl]methoxy]pyrazol-3-yl]pyrazolo[1,5-a]pyridin-2-yl]cyclopropanecarboxamide]",25.5
6,"CC(=O)CN1CC[C@@H]1COc1cnn(C)c1-c1ccn2nc(NC(=O)C3CC3)cc2c1 [Example 251, N-[5-[4-[[(2R)-1-acetonylazetidin-2-yl]methoxy]-2-methyl-pyrazol-3-yl]pyrazolo[1,5-a]pyridin-2-yl]cyclopropanecarboxamide]",45.6
7,"C[C@@H](O)CN1CC[C@@H]1COc1cnn(C)c1-c1ccn2nc(NC(=O)C3CC3)cc2c1 [Example 252, N-[5-[4-[[(2R)-1-[(2R)-2-hydroxypropyl]azetidin-2-yl]methoxy]-2-methyl-pyrazol-3-yl]pyrazolo[1,5-a]pyridin-2-yl]cyclopropanecarboxamide]",9.4
8,"CN1C[C@H](c2ccccc2)C[C@@H]1COc1cnn(C)c1-c1ccn2nc(NC(=O)C3CC3)cc2c1 [Example 257, N-[5-[2-methyl-4-[[(2R,4S)-1-methyl-4-phenyl-pyrrolidin-2-yl]methoxy]pyrazol-3-yl]pyrazolo[1,5-a]pyridin-2-yl]cyclopropanecarboxamide]",23.5
9,"Cn1ncc(OC[C@H]2CCN2C[C@H]2CCCO2)c1-c1ccn2nc(NC(=O)C3CC3)cc2c1 [Example 259, N-(5-(1-methyl-4-(((R)-1-(((R)-tetrahydrofuran-2-yl)methyl)azetidin-2-yl)methoxy)-1H-pyrazol-5-yl)pyrazolo[1,5-a]pyridin-2-yl)cyclopropanecarboxamide]",46.5
10,"Cc1cc(Nc2cc3cc(-c4c(O[C@H]5CCN(C)C5)cnn4C)ccn3n2)ncn1 [Example 265, 5-[2-methyl-4-[(3S)-1-methylpyrrolidin-3-yl]oxy-pyrazol-3-yl]-N-(6-methylpyrimidin-4-yl)pyrazolo[1,5-a]pyridin-2-amine]",30.5
11,"CN1CC[C@H](Oc2cnn(C)c2-c2ccn3nc(Nc4cccc(C(F)(F)F)n4)cc3c2)C1 [Example 266, 5-[2-methyl-4-[(3S)-1-methylpyrrolidin-3-yl]oxy-pyrazol-3-yl]-N-[6-(trifluoromethyl)-2-pyridyl]pyrazolo[1,5-a]pyridin-2-amine]",39.5
12,"Cc1cc(Nc2cc3cc(-c4c(O[C@H]5CCN(C)C5)cnn4C)ccn3n2)nc(C)n1 [Example 267, N-(2,6-dimethylpyrimidin-4-yl)-5-[2-methyl-4-[(3S)-1-methylpyrrolidin-3-yl]oxy-pyrazol-3-yl]pyrazolo[1,5-a]pyridin-2-amine]",29.8
13,"CC(C)c1nccc(Nc2cc3cc(-c4c(O[C@H]5CCN(C)C5)cnn4C)ccn3n2)n1 [Example 270, N-(2-isopropylpyrimidin-4-yl)-5-[2-methyl-4-[(3S)-1-methylpyrrolidin-3-yl]oxy-pyrazol-3-yl]pyrazolo[1,5-a]pyridin-2-amine]",47.7
14,"Cc1cc(Nc2cc3cc(-c4c(OC[C@H]5CCN5CCF)cnn4C)ccn3n2)nc(C)n1 [Example 274, N-(2,6-dimethylpyrimidin-4-yl)-5-[4-[[(2R)-1-(2-fluoroethyl)azetidin-2-yl]methoxy]-2-methyl-pyrazol-3-yl]pyrazolo[1,5-a]pyridin-2-amine]",0.9

# Continued by falling IC50, values first:
row,IC50 [nM],Compound
1,51.8,"Cn1ncc(OC[C@H]2CCN2CC(C)(C)C#N)c1-c1ccn2nc(NC(=O)C3CC3)cc2c1 [Example 255, N-[5-[4-[[(2R)-1-(2-cyano-2-methyl-propyl)azetidin-2-yl]methoxy]-2-methyl-pyrazol-3-yl]pyrazolo[1,5-a]pyridin-2-yl]cyclopropanecarboxamide]"
2,43.5,"Cc1cc(Nc2cc3cc(-c4c(O[C@H]5CCN(C)C5)cnn4C)ccn3n2)nnc1C [Example 272, N-(5,6-dimethylpyridazin-3-yl)-5-[2-methyl-4-[(3S)-1-methylpyrrolidin-3-yl]oxy-pyrazol-3-yl]pyrazolo[1,5-a]pyridin-2-amine]"
3,42,"C[C@@H]1CC[C@H](COc2cnn(C)c2-c2ccn3nc(NC(=O)C4CC4)cc3c2)N1C [Example 256, N-[5-[4-[[(2R,5R)-1,5-dimethylpyrrolidin-2-yl]methoxy]-2-methyl-pyrazol-3-yl]pyrazolo[1,5-a]pyridin-2-yl]cyclopropanecarboxamide]"
4,40.8,"CC(C)c1cc(Nc2cc3cc(-c4c(O[C@H]5CCN(C)C5)cnn4C)ccn3n2)ncn1 [Example 271, N-(6-isopropylpyrimidin-4-yl)-5-[2-methyl-4-[(3S)-1-methylpyrrolidin-3-yl]oxy-pyrazol-3-yl]pyrazolo[1,5-a]pyridin-2-amine]"
5,37.6,"Cc1cc(Nc2cc3cc(-c4c(OC[C@H]5CCN5)cnn4C(F)F)ccn3n2)nc(C)n1 [Example 260, 5-[4-[[(2R)-azetidin-2-yl]methoxy]-2-(difluoromethyl)pyrazol-3-yl]-N-(2,6-dimethylpyrimidin-4-yl)pyrazolo[1,5-a]pyridin-2-amine]"
6,36.5,"CN1CC[C@H](Oc2cnn(C)c2-c2ccn3nc(Nc4ccn5nccc5n4)cc3c2)C1 [Example 268, N-[5-[2-methyl-4-[(3S)-1-methylpyrrolidin-3-yl]oxy-pyrazol-3-yl]pyrazolo[1,5-a]pyridin-2-yl]pyrazolo[1,5-a]pyrimidin-5-amine]"
7,33.2,"CN1CC[C@H](Oc2cnn(C)c2-c2ccn3nc(Nc4cc5c(nn4)CCC5)cc3c2)C1 [Example 269, N-(6,7-dihydro-5H-cyclopenta[c]pyridazin-3-yl)-5-[2-methyl-4-[(3S)-1-methylpyrrolidin-3-yl]oxy-pyrazol-3-yl]pyrazolo[1,5-a]pyridin-2-amine]"
8,32.2,"Cc1cc(Nc2cc3cc(-c4c(OC[C@H]5CCN5)cnn4C)ccn3n2)nnc1C [Example 275, 5-[4-[[(2R)-azetidin-2-yl]methoxy]-2-methyl-pyrazol-3-yl]-N-(5,6-dimethylpyridazin-3-yl)pyrazolo[1,5-a]pyridin-2-amine]"
9,18.1,"Cc1cc(Nc2cc3cc(-c4c(OC[C@H]5CCN5)cnn4C)ccn3n2)nc(C(F)(F)F)n1 [Example 273, 5-[4-[[(2R)-azetidin-2-yl]methoxy]-2-methyl-pyrazol-3-yl]-N-[6-methyl-2-(trifluoromethyl)pyrimidin-4-yl]pyrazolo[1,5-a]pyridin-2-amine]"
10,13.7,"Cn1ncc(OC[C@H]2CCN2CC(C)(C)O)c1-c1ccn2nc(NC(=O)C3CC3)cc2c1 [Example 245, N-[5-[4-[[(2R)-1-(2-hydroxy-2-methyl-propyl)azetidin-2-yl]methoxy]-2-methyl-pyrazol-3-yl]pyrazolo[1,5-a]pyridin-2-yl]cyclopropanecarboxamide]"
11,11.3,"COCCN1CC[C@@H]1COc1cnn(C)c1-c1ccn2nc(NC(=O)C3CC3)cc2c1 [Example 243, N-[5-[4-[[(2R)-1-(2-methoxyethyl)azetidin-2-yl]methoxy]-2-methyl-pyrazol-3-yl]pyrazolo[1,5-a]pyridin-2-yl]cyclopropanecarboxamide]"
12,8.3,"Cn1ncc(O[C@@H]2CNC[C@@H]2F)c1-c1ccn2nc(NC(=O)C3CC3)cc2c1 [Example 242, N-[5-[4-[(3R,4S)-4-fluoropyrrolidin-3-yl]oxy-2-methyl-pyrazol-3-yl]pyrazolo[1,5-a]pyridin-2-yl]cyclopropanecarboxamide]"
13,7.7,"CCN1CC[C@@H]1COc1cnn(C(F)F)c1-c1ccn2nc(Nc3cnc(C)cn3)cc2c1 [Example 264, 5-[2-(difluoromethyl)-4-[[(2R)-1-ethylazetidin-2-yl]methoxy]pyrazol-3-yl]-N-(5-methylpyrazin-2-yl)pyrazolo[1,5-a]pyridin-2-amine]"
14,7.3,"CN1C[C@@H](c2ccccc2)C[C@@H]1COc1cnn(C)c1-c1ccn2nc(NC(=O)C3CC3)cc2c1 [Example 258, N-[5-[2-methyl-4-[[(2R,4R)-1-methyl-4-phenyl-pyrrolidin-2-yl]methoxy]pyrazol-3-yl]pyrazolo[1,5-a]pyridin-2-yl]cyclopropanecarboxamide]"
15,2.4,"C[C@H](O)CN1CC[C@@H]1COc1cnn(C)c1-c1ccn2nc(NC(=O)C3CC3)cc2c1 [Example 253, N-[5-[4-[[(2R)-1-[(2S)-2-hydroxypropyl]azetidin-2-yl]methoxy]-2-methyl-pyrazol-3-yl]pyrazolo[1,5-a]pyridin-2-yl]cyclopropanecarboxamide]"
16,1.5,"[2H]C([2H])([2H])C([2H])([2H])N1CC[C@@H]1COc1cnn(C)c1-c1ccn2nc(NC(=O)C3CC3)cc2c1 [Example 254, N-[5-[2-methyl-4-[[(2R)-1-(1,1,2,2,2-pentadeuterioethyl)azetidin-2-yl]methoxy]pyrazol-3-yl]pyrazolo[1,5-a]pyridin-2-yl]cyclopropanecarboxamide]"
